Source: patent publication US9777008B2, “PRMT5 inhibitors and uses thereof” (Epizyme, Inc., priority 2012, dated 2017)

How the values were obtained:
[1] = system: symmetric di-methyl arginine in Z-138 cells; assay: Z-138 Methylation Assay (In Cell Western for symmetric di-methyl arginine and DNA content); format: cell-based; details: read-out: ICW EC50
Excerpt: [formula] [formula] Where top and bottom are the normally allowed to float, but may be fixed at 100 or 0 respectively in a 3-parameter fit. The Hill Coefficient normally allowed to float but may also be fixed at 1 in a 3-parameter fit. Y is the % inhibition and X is the compound concentration. Z-138 Methylation Assay
Z-138 suspension cells were purchased from ATCC (American Type Culture Collection, Manassas, Va.). RPMI/Glutamax medium, penicillin-streptomycin, heat inactivated fetal bovine serum, and D-PBS were purchased from Life Technologies, Grand Island, N.Y., USA. Odyssey blocking buffer, 800CW goat anti-rabbit IgG (H+L) antibody, and Licor Odyssey infrared scanner were purchased from Licor Biosciences, Lincoln, Nebr., USA. Symmetric di-methyl arginine antibody was purchased from EMD Millipore, Billerica, Mass., USA. 16% Paraformaldehyde was purchased from Electron Microscopy Sciences, Hatfield, Pa., USA. Z-138 suspension cells were maintained in growth medium (RPMI 1640 supplemented with 10% v/v heat inactivated fetal bovine serum and 100 units/mL penicillin-streptomycin) and cultured at 37° C. under 5% CO2.
Cell Treatment, in Cell Western (ICW) for Detection of Symmetric Di-Methyl Arginine and DNA Content.
Z-138 cells were seeded in assay medium at a concentration of 50,000 cells per mL to a 384-well cell culture plate with 50 μL per well. Compound (100 nL) from 384 well source plates was added directly to 384 well cell plate. Plates were incubated at 37° C., 5% CO2 for 96 hours. […]
First, the ratio for each well was determined by:
Each plate included fourteen control wells of DMSO only treatment (minimum inhibition) as well as fourteen control wells for maximum inhibition treated with 3 μM of a reference compound (Background wells). The average of the ratio values for each control type was calculated and used to determine the percent inhibition for each test well in the plate. […] Percent inhibition was determined and IC50 curves were generated using triplicate wells per concentration of compound. […]

[2] = system: Z-138 cell line; assay: Z-138 Proliferation Assay (Cell-Titer Glo, 5 days); format: cell-based; details: Z-138 cells
Excerpt: [formula] Z-138 Proliferation Assay
Z-138 suspension cells were purchased from ATCC (American Type Culture Collection, Manassas, Va.). RPMI/Glutamax medium, penicillin-streptomycin, heat inactivated fetal bovine serum were purchased from Life Technologies, Grand Island, N.Y., USA. V-bottom polypropylene 384-well plates were purchased from Greiner Bio-One, Monroe, N.C., USA. Cell culture 384-well white opaque plates were purchased from Perkin Elmer, Waltham, Mass., USA. Cell-Titer Glo® was purchased from Promega Corporation, Madison, Wis., USA. SpectraMax M5 plate reader was purchased from Molecular Devices LLC, Sunnyvale, Calif., USA. […] Cell viability was measured by quantitation of ATP present in the cell cultures, adding […] of Cell Titer Glo® reagent to the cell plates. Luminescence was read in the SpectraMax M5 microplate reader. The concentration of compound inhibiting cell viability by 50% was determined using a 4-parametric fit of the normalized dose response curves.

Molecule | EC50 [1] | EC50 [2]
OC(COc1cccc(-c2ccc3cn[nH]c3c2)c1)CN1CCc2ccccc2C1 (stereo not shown) [Compound 58, 1-(3-(1H-indazol-6-yl)phenoxy)-3-(3,4-dihydroisoquinolin-2(1H)-yl)propan-2-ol] | 1 to 10 µM | 10 to 40 µM
N-(3-(3-(3,4-dihydroisoquinolin-2(1H)-yl)-2-hydroxypropoxy)phenyl)pyrimidine-5-carboxamide [Compound 145] | 1 to 10 µM | > 20 µM
